The compounds below were run on rabbit skeletal myofibrils (fast skeletal myofibrils) (assay: Activation of fast skeletal myofibrils (PUMA assay, AC1.4)). Conditions: calcium at pCa25, AC1.4 = concentration at which the compound increased the enzymatic activity.
Assay type: biochemical
Procedure, shortened: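 Detergent-washed rabbit psoas myofibrils (~90% fast fibers), calcium set to give 25% of maximal rate (pCa25). ATPase followed by pyruvate kinase/lactate dehydrogenase-coupled NADH oxidation, absorbance at 340 nm. PM12 buffer: 12 mM PIPES, 2 mM MgCl2, 1 mM DTT, pH 6.8.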
Work on `CC[C@H](C)[C@H]1C(=O)Nc2ccccc2CN1C(=O)N[C@H]1CCC(=O)NC1` [Compound 219, (S)-3-((S)-sec-butyl)-2-oxo-N-((S)-6-oxopiperidin-3-yl)-1,2,3,5-tetrahydro-4H-benzo[e][1,4]diazepine-4-carboxamide] yielded an AC1.4 of 2.10 µM. Compound `CC[C@H](C)[C@H]1C(=O)Nc2ccccc2CN1C(=O)NCCS(C)(=O)=O` [Compound 220, (S)-3-((S)-sec-butyl)-N-(2-(methylsulfonyl)ethyl)-2-oxo-1,2,3,5-tetrahydro-4H-benzo[e][1,4]diazepine-4-carboxamide] has an AC1.4 of 3.01 µM. `CC[C@H](C)[C@H]1C(=O)Nc2ccccc2CN1C(=O)NCCS(N)(=O)=O` [Compound 221, (S)-3-((S)-sec-butyl)-2-oxo-N-(2-sulfamoylethyl)-1,2,3,5-tetrahydro-4H-benzo[e][1,4]diazepine-4-carboxamide] was tested, and the AC1.4 was 1.80 µM. Work on `CC[C@H](C)[C@H]1C(=O)Nc2ccccc2CN1C(=O)NCCN1CC[C@@H](O)C1` [Compound 222, (S)-3-((S)-sec-butyl)-N-(2-((R)-3-hydroxypyrrolidin-1-yl)ethyl)-2-oxo-1,2,3,5-tetrahydro-4H-benzo[e][1,4]diazepine-4-carboxamide] yielded an AC1.4 of 2.02 µM. `CC[C@H](C)[C@H]1C(=O)Nc2ccccc2CN1C(=O)NCCN1CC[C@H](O)C1` [Compound 223, (S)-3-((S)-sec-butyl)-N-(2-((S)-3-hydroxypyrrolidin-1-yl)ethyl)-2-oxo-1,2,3,5-tetrahydro-4H-benzo[e][1,4]diazepine-4-carboxamide] showed an AC1.4 of 1.43 µM. Work on `CC[C@H](C)[C@H]1C(=O)Nc2ccccc2CN1C(=O)NC1CCS(=O)(=O)C1` (stereo partly drawn) [Compound 224, (3S)-3-((S)-sec-butyl)-N-(1,1-dioxoidotetrahydrothiophen-3-yl)-2-oxo-1,2,3,5-tetrahydro-4H-benzo[e][1,4]diazepine-4-carboxamide] yielded an AC1.4 of 2.85 µM. `CC[C@H](C)[C@H]1C(=O)Nc2ccccc2CN1C(=O)N(C)CCO` [Compound 225, (S)-3-((S)-sec-butyl)-N-(2-hydroxyethyl)-N-methyl-2-oxo-1,2,3,5-tetrahydro-4H-benzo[e][1,4]diazepine-4-carboxamide] was tested, and the AC1.4 was 1.67 µM. For `CC[C@H](C)[C@H]1C(=O)Nc2ccccc2CN1C(=O)N1CCNCC1` [Compound 226, (S)-3-((S)-sec-butyl)-4-(piperazine-1-carbonyl)-1,3,4,5-tetrahydro-2H-benzo[e][1,4]diazepin-2-one], the AC1.4 was 3.91 µM. For `CC[C@H](C)[C@H]1C(=O)Nc2ccccc2CN1C(=O)N1CCC(O)C1` (stereo partly drawn) [Compound 227, (3S)-3-((S)-sec-butyl)-4-(3-hydroxypyrrolidine-1-carbonyl)-1,3,4,5-tetrahydro-2H-benzo[e][1,4]diazepin-2-one], the AC1.4 was 2.29 µM. Work on `CC[C@H](C)[C@H]1C(=O)Nc2ccccc2CN1C(=O)N(C)CC(N)=O` [Compound 228, (S)-N-(2-amino-2-oxoethyl)-3-((S)-sec-butyl)-N-methyl-2-oxo-1,2,3,5-tetrahydro-4H-benzo[e][1,4]diazepine-4-carboxamide] yielded an AC1.4 of 3.76 µM. For `CC[C@H](C)[C@H]1C(=O)Nc2ccccc2CN1C(=O)N1CCNC(=O)C1` [Compound 229, (S)-3-((S)-sec-butyl)-4-(3-oxopiperazine-1-carbonyl)-1,3,4,5-tetrahydro-2H-benzo[e][1,4]diazepin-2-one], the AC1.4 was 3.74 µM. Compound `CC[C@H](C)[C@H]1C(=O)Nc2ccccc2CN1C(=O)N1CCN(C)CC1` [Compound 230, (S)-3-((S)-sec-butyl)-4-(4-methylpiperazine-1-carbonyl)-1,3,4,5-tetrahydro-2H-benzo[e][1,4]diazepin-2-one] has an AC1.4 of 1.31 µM. In the case of `CC[C@H](C)[C@H]1C(=O)Nc2ccccc2CN1C(=O)N1CCN[C@@H](C)C1` [Compound 231, (S)-3-((S)-sec-butyl)-4-((S)-3-methylpiperazine-1-carbonyl)-1,3,4,5-tetrahydro-2H-benzo[e][1,4]diazepin-2-one], the AC1.4 is reported as 4.86 µM. Work on `CC[C@H](C)[C@H]1C(=O)Nc2ccccc2CN1C(=O)N[C@@H](C)C(=O)NC` [Compound 232, (S)-3-((S)-sec-butyl)-N-((S)-1-(methylamino)-1-oxopropan-2-yl)-2-oxo-1,2,3,5-tetrahydro-4H-benzo[e][1,4]diazepine-4-carboxamide] yielded an AC1.4 of 3.47 µM. `CC[C@H](C)[C@H]1C(=O)Nc2ccccc2CN1C(=O)N(C)c1cnccn1` [Compound 233, (S)-3-((S)-sec-butyl)-N-methyl-2-oxo-N-(pyrazin-2-yl)-1,2,3,5-tetrahydro-4H-benzo[e][1,4]diazepine-4-carboxamide] gave an AC1.4 of 2.16 µM. `CC[C@H](C)[C@H]1C(=O)Nc2ccccc2CN1C(=O)N1CCC(N(C)C)C1` (stereo partly drawn) [Compound 234, (3S)-3-((S)-sec-butyl)-4-(3-(dimethylamino)pyrrolidine-1-carbonyl)-1,3,4,5-tetrahydro-2H-benzo[e][1,4]diazepin-2-one] gave an AC1.4 of 4.64 µM. In the case of `CC[C@H](C)[C@H]1C(=O)Nc2ccccc2CN1C(=O)N(C)C1CCN(C)C1` (stereo partly drawn) [Compound 235, (3S)-3-((S)-sec-butyl)-N-methyl-N-(1-methylpyrrolidin-3-yl)-2-oxo-1,2,3,5-tetrahydro-4H-benzo[e][1,4]diazepine-4-carboxamide], the AC1.4 is reported as 1.45 µM. `CC[C@H](C)[C@H]1C(=O)Nc2ccccc2CN1C(=O)N1CCC[C@H]1C(=O)O` [Compound 236, ((S)-3-((S)-sec-butyl)-2-oxo-2,3,4,5-tetrahydro-1H-benzo[e][1,4]diazepine-4-carbonyl)-L-proline] was tested, and the AC1.4 was 3.43 µM. In the case of `CC[C@H](C)[C@H]1C(=O)Nc2ccccc2CN1C(=O)N(C)Cc1coc(C)n1` [Compound 237, (S)-3-((S)-sec-butyl)-N-methyl-N-((2-methyloxazol-4-yl)methyl)-2-oxo-1,2,3,5-tetrahydro-4H-benzo[e][1,4]diazepine-4-carboxamide], the AC1.4 is reported as 1.86 µM. For `CC[C@H](C)[C@H]1C(=O)Nc2ccccc2CN1C(=O)N1CCCC(C(N)=O)C1` (stereo partly drawn) [Compound 238, 1-((S)-3-((S)-sec-butyl)-2-oxo-2,3,4,5-tetrahydro-1H-benzo[e][1,4]diazepine-4-carbonyl)piperidine-3-carboxamide], the AC1.4 was 4.49 µM. `CC[C@H](C)[C@H]1C(=O)Nc2ccccc2CN1C(=O)N1CCC(N(C)C)CC1` [Compound 239, (S)-3-((S)-sec-butyl)-4-(4-(dimethylamino)piperidine-1-carbonyl)-1,3,4,5-tetrahydro-2H-benzo[e][1,4]diazepin-2-one] was tested, and the AC1.4 was 1.65 µM. Compound `CC[C@H](C)[C@H]1C(=O)Nc2ccccc2CN1C(=O)N(C)CCS(C)(=O)=O` [Compound 240, (S)-3-((S)-sec-butyl)-N-methyl-N-(2-(methylsulfonyl)ethyl)-2-oxo-1,2,3,5-tetrahydro-4H-benzo[e][1,4]diazepine-4-carboxamide] has an AC1.4 of 2.87 µM. In the case of `CC[C@H](C)[C@H]1C(=O)Nc2ccccc2CN1C(=O)N1CCCn2c(C)nnc21` [Compound 241, (S)-3-((S)-sec-butyl)-4-(3-methyl-5,6,7,8-tetrahydro-[1,2,4]triazolo[4,3-a]pyrimidine-8-carbonyl)-1,3,4,5-tetrahydro-2H-benzo[e][1,4]diazepin-2-one], the AC1.4 is reported as 1.35 µM. `CC[C@H](C)[C@H]1C(=O)Nc2ccccc2CN1C(=O)N1CCC(N(C)C(C)=O)C1` (stereo partly drawn) [Compound 242, N-(1-((S)-3-((S)-sec-butyl)-2-oxo-2,3,4,5-tetrahydro-1H-benzo[e][1,4]diazepine-4-carbonyl)pyrrolidin-3-yl)-N-methylacetamide] gave an AC1.4 of 4.30 µM.

From US12441691B2 (Cytokinetics, Inc., priority 2020, dated 2025)
